According to a melting point compilation (Tetko et al.; mined from patent text by program, amines drawn as free bases though some values may be those of a salt):

Row | Compound | melting point [°C]
1 | CC(=O)c1ccc(N)c(C(=O)c2ccccc2)c1 | 158 to 161
2 | COCCn1cc(-c2ccccc2)n(C(C)=O)c1=O | 73 to 75
3 | O=C(Nc1ccccn1)c1c(OC(F)F)ccc2oc3ccc(C(F)(F)F)cc3c12 | 169 to 170
4 | Cc1cc(Br)c2ncn([C@H](C)[C@](O)(Cn3cncn3)c3ccc(F)cc3F)c(=O)c2c1 | 116 to 123
5 | CC(C)(C)OC(=O)Nc1ccccc1NC(=O)c1ccc(C(=O)Nc2cccc(Nc3nc(-c4cccnc4)cs3)c2)s1 | 198
6 | COC(=O)Cc1cc([N+](=O)[O-])c(OC)c2c1N(C(C)=O)CC2 | 181 to 182
7 | CC1(C2CCCC2)Cc2cc(OCC(=O)O)c(Cl)c(Cl)c2C1O (centres undefined) | 129 to 131
8 | COc1cc2sc(C(=N)NO)cc2cc1OC(F)F | 176 to 177
9 | O=C(Nc1ccc2nc(CN3CCCC3)ccc2c1)[C@H]1CO[C@H](c2ccc(Cl)cc2)OC1 | 244 to 246
10 | COc1ccc2cccc3c2c1C(=O)N(O)C3=O | 205 to 206
11 | O=C1OC(=O)C(c2ccccc2)=C1c1ccccc1 | 183 to 184
12 | COC(=O)c1cccc2c1C(Cc1ccncc1)(Cc1ccnc(F)c1)c1ccccc1-2 (centres undefined) | 144 to 146
13 | CC(=O)OCC(=O)C1(OC(C)=S)CCC2C3CC(C)C4=CC(=O)C=CC4(C)C3C(O)CC21C (centres undefined) | 149 to 151
14 | Cc1ccc(C(=O)Nc2ccc(-c3ccccc3)c(C(F)(F)F)c2)cc1Nc1nccc(-c2cccnc2)n1 | 172 to 174
15 | COc1ccc(-c2csc(CC(=O)O)n2)cc1OC1CC2CCC1C2 (centres undefined) | 190 to 191
16 | Cc1ccc2c(n1)N(CCCN1CCCC1)c1ccccc1N(C)C2=O | 134 to 136
17 | O=C(NCCCCN1CCN(C(c2ccccc2)c2ccccc2)CC1)c1cnc2cccc(O)c2c1O | 215 to 218
18 | Fc1ccc(-c2ncncc2CCN2CCC(c3csc4cc(F)ccc34)CC2)cc1 | 123 to 124
19 | CCCOc1ccc(-c2ncc(C#N)cn2)cc1 | 193 to 194
20 | CC(C)(Cc1ccccc1)C(NC(=O)c1cc(Cl)cc(Cl)c1)Nc1c(Nc2cccnc2)c(=O)c1=O (centres undefined) | 197 to 198

Row | Compound | melting point [°C]
21 | O=CNCC(O)(Cn1cncn1)c1ccc(Cl)cc1Cl (centres undefined) | 157
22 | C[C@@H]1NC(=O)C[C@@]1(O)C1CC1 | 133 to 140
23 | CCCOc1cc(C(=O)O)cc([N+](=O)[O-])c1C(=O)c1ccccc1 | 160 to 162
24 | CCc1cc2c(cc1OCc1ccccc1)CCC1C2CCC2(C)C(=CCO)CCC12 (centres undefined) | 61 to 62
25 | CCCCn1nc2c(N)nc3ncccc3c2c1CC(C)C | 219 to 222
26 | CC1=C(c2ccccc2)C(=O)N(C(C)(C)C(O)c2cc(F)cc(F)c2)CO1 (centres undefined) | 87.6 to 89
27 | COc1ccc2c(c1)cc(C(=O)O)n2-c1ccccc1 | 197 to 204
28 | O=C(C=Cc1ccc(O)c([N+](=O)[O-])c1)NC1CCc2ccccc21 (centres undefined) | 203 to 205
29 | O=C(O)CC1(CC(=O)O)c2ccccc2C(=O)c2ccccc21 | 230 to 232
30 | COC(=O)c1c(CC(C)C)nc2ccc(Br)cc2c1-c1ccccc1 | 108 to 110
31 | NC(=O)c1c(Cl)cn2c1CN(S(=O)(=O)c1ccc(-c3ccccn3)s1)CC2 | 213 to 214
32 | Cc1ncc(C=CC=CC(=O)O)s1 | 220 to 222
33 | CCn1nc(-c2ccccc2)c(C(C)=O)c(Nc2ccc(Br)c3cccnc23)c1=O | 148 to 149
34 | CC(C)C(OCc1ccccc1)[C@H]1[C@H]([N+](=O)[O-])[C@@H](c2ccco2)N[C@@H]1C(=O)NCCC(=O)O (some centres undefined) | 70 to 72
35 | O=C(O)c1ccc(C(=O)Nc2cccc3cc(Br)cnc23)cc1 | > 300
36 | COc1ccncc1C#N | 124 to 126
37 | COc1cccc2ncoc12 | 28 to 31
38 | O=C(O)c1cc(CO)nn1-c1ncccc1Cl | 178 to 180
39 | C[Si](C)(C)c1ccc2c(c1)C(CN1CCCCC1)c1cc([Si](C)(C)C)ccc1-2 | 107 to 108
